Test: Leaching test: 100 g fabric soaked in 10 liters stagnant distilled water, 3 days (72 hours)
Assay type: physicochemical
Procedure: The test procedure for leaching was as follows: 100 g (grams) of fabric as well as control fabrics were soaked in 10 liters of stagnant distilled water in a closed wide mouth jar. After 3 days (72 hours), the water samples were tested for leached substances as per standard analytical methods.
The test procedure for leaching was as follows: 100 g (grams) of fabric as well as control fabrics were soaked in 10 liters of stagnant distilled water in a closed wide mouth jar. After 3 days (72 hours), the water samples were tested for leached substances as per standard analytical methods. A weight of 100 g fabric was chosen because in the preferred embodiment of the water filter as described further below, each filter comprises a strip of fabric with 210 g/m^2, 3 meters long and 0.16 meters wide, which corresponds to 100 g of fabric.

polyglucosamine [chitosan]
Leaching of active ingredients (in ppm) (0.2% each in mixture (o.w.f), exhaust 80° C., 60 min, curing 180° C., 2 min, unwashed): 9 ppm
Leaching of active ingredients (in ppm) (0.5% each in mixture (o.w.f), exhaust 80° C., 60 min, curing 180° C., 2 min, unwashed): 12 ppm
Leaching of active ingredients (in ppm) (1.0% each in mixture (o.w.f), exhaust 80° C., 60 min, curing 180° C., 2 min, unwashed): 16 ppm
Leaching of active ingredients (in ppm) (exhaust 60° C., solution dosage 1% o.w.f, process time 60 min): 21 ppm
Leaching of active ingredients (in ppm) (exhaust 60° C., solution dosage 1% o.w.f, process time 90 min): 13 ppm
Leaching of active ingredients (in ppm) (exhaust 60° C., solution dosage 1% o.w.f, process time 120 min): 14 ppm
Leaching of active ingredients (in ppm) (exhaust 60° C., solution dosage 1% o.w.f, process time 180 min): 12 ppm
Leaching of active ingredients (in ppm) (exhaust 60° C., solution dosage 1% o.w.f, process time 240 min): 13 ppm
Leaching of active ingredients (in ppm) (exhaust 80° C., 1% o.w.f, 60 min, curing 170° C., curing dwell time 0.5 min): 28 ppm
Leaching of active ingredients (in ppm) (exhaust 80° C., 1% o.w.f, 60 min, curing 170° C., curing dwell time 1.0 min): 26 ppm
Leaching of active ingredients (in ppm) (exhaust 80° C., 1% o.w.f, 60 min, curing 170° C., curing dwell time 1.5 min): 20 ppm
Leaching of active ingredients (in ppm) (exhaust 80° C., 1% o.w.f, 60 min, curing 170° C., curing dwell time 2.0 min): 13 ppm
Leaching of active ingredients (in ppm) (exhaust 80° C., 1% o.w.f, 60 min, curing 170° C., curing dwell time 2.5 min): 18 ppm
Leaching of active ingredients (in ppm) (exhaust 80° C., 1% o.w.f, 60 min, curing 170° C., curing dwell time 3.0 min): 18 ppm
Leaching of active ingredients (in ppm) (exhaust 80° C., 1% o.w.f, 60 min, curing 180° C., curing dwell time 0.5 min): 21 ppm
Leaching of active ingredients (in ppm) (exhaust 80° C., 1% o.w.f, 60 min, curing 180° C., curing dwell time 1.0 min): 13 ppm
Leaching of active ingredients (in ppm) (exhaust 80° C., 1% o.w.f, 60 min, curing 180° C., curing dwell time 1.5 min): 14 ppm
Leaching of active ingredients (in ppm) (exhaust 80° C., 1% o.w.f, 60 min, curing 180° C., curing dwell time 2.0 min): 3 ppm
Leaching of active ingredients (in ppm) (exhaust 80° C., 1% o.w.f, 60 min, curing 180° C., curing dwell time 2.5 min): 12 ppm
Leaching of active ingredients (in ppm) (exhaust 80° C., 1% o.w.f, 60 min, curing 180° C., curing dwell time 3.0 min): 12 ppm
Leaching of active ingredients (in ppm) (exhaust 80° C., 1% o.w.f, 60 min, curing dwell time at 190° C. (title): 0.5 min): 20 ppm
Leaching of active ingredients (in ppm) (exhaust 80° C., 1% o.w.f, 60 min, curing dwell time at 190° C. (title): 1.0 min): 13 ppm
Leaching of active ingredients (in ppm) (exhaust 80° C., 1% o.w.f, 60 min, curing dwell time at 190° C. (title): 1.5 min): 12 ppm
Leaching of active ingredients (in ppm) (exhaust 80° C., 1% o.w.f, 60 min, curing dwell time at 190° C. (title): 2.0 min): 11 ppm
Leaching of active ingredients (in ppm) (exhaust 80° C., 1% o.w.f, 60 min, curing dwell time at 190° C. (title): 2.5 min): 25 ppm
Leaching of active ingredients (in ppm) (exhaust 80° C., 1% o.w.f, 60 min, curing dwell time at 190° C. (title): 3.0 min): 35 ppm
Leaching of active ingredients (in ppm) (exhaust 80° C., 60 min, dosage 1% o.w.f (test up to 5% o.w.f)): 2 ppm
Leaching of active ingredients (in ppm) (exhaust 80° C., 60 min, dosage 2% o.w.f): 17 ppm
Leaching of active ingredients (in ppm) (exhaust 80° C., 60 min, dosage 3% o.w.f): 41 ppm
Leaching of active ingredients (in ppm) (exhaust 80° C., 60 min, dosage 4% o.w.f): 42 ppm
Leaching of active ingredients (in ppm) (exhaust 80° C., 60 min, dosage 5% o.w.f): 72 ppm
Leaching of active ingredients (in ppm) (exhaust 80 ° C., solution dosage 1% o.w.f, process time 10 min): 37 ppm
Leaching of active ingredients (in ppm) (exhaust 80 ° C., solution dosage 1% o.w.f, process time 20 min): 25 ppm
Leaching of active ingredients (in ppm) (exhaust 80 ° C., solution dosage 1% o.w.f, process time 30 min): 21 ppm
Leaching of active ingredients (in ppm) (exhaust 80 ° C., solution dosage 1% o.w.f, process time 40 min): 16 ppm
Leaching of active ingredients (in ppm) (exhaust 80 ° C., solution dosage 1% o.w.f, process time 50 min): 12 ppm
Leaching of active ingredients (in ppm) (exhaust 80 ° C., solution dosage 1% o.w.f, process time 55 min): 5 ppm
Leaching of active ingredients (in ppm) (exhaust 80 ° C., solution dosage 1% o.w.f, process time 60 min): 3 ppm
Leaching of active ingredients (in ppm) (exhaust 80 ° C., solution dosage 1% o.w.f, process time 70 min): 2 ppm
Leaching of active ingredients (in ppm) (exhaust 80 ° C., solution dosage 1% o.w.f, process time 80 min): 5 ppm
Leaching of active ingredients (in ppm) (exhaust 80 ° C., solution dosage 1% o.w.f, process time 90 min): 8 ppm
limit on the quantity of the agent that can be adhered to the textile in a non-leaching or substantially non-leaching manner (from Experimental examples I.1 and I.4): about 0.2 % o.w.f.
Leaching of active ingredient (in ppm) (solution dosage 0.10% o.w.f, exhaust temperature 60° C., process time 60 min): 0 ppm
Leaching of active ingredient (in ppm) (solution dosage 0.10% o.w.f, exhaust temperature 65° C., process time 60 min): 0 ppm
Leaching of active ingredient (in ppm) (solution dosage 0.10% o.w.f, exhaust temperature 70° C., process time 60 min): 0 ppm
Leaching of active ingredient (in ppm) (solution dosage 0.10% o.w.f, exhaust temperature 75° C., process time 60 min): 0 ppm
Leaching of active ingredient (in ppm) (solution dosage 0.10% o.w.f, exhaust temperature 80° C., process time 60 min): 0 ppm
Leaching of active ingredient (in ppm) (solution dosage 0.10% o.w.f, exhaust temperature 85° C., process time 60 min): 1 ppm
Leaching of active ingredient (in ppm) (solution dosage 0.10% o.w.f, exhaust temperature 90° C., process time 60 min): 2 ppm
Leaching of active ingredient (in ppm) (solution dosage 0.10% o.w.f, exhaust temperature 95° C., process time 60 min): 2 ppm
Leaching of active ingredient (in ppm) (solution dosage 0.20% o.w.f, exhaust temperature 60° C., process time 60 min): 0 ppm
Leaching of active ingredient (in ppm) (solution dosage 0.20% o.w.f, exhaust temperature 65° C., process time 60 min): 0 ppm
Leaching of active ingredient (in ppm) (solution dosage 0.20% o.w.f, exhaust temperature 70° C., process time 60 min): 0 ppm
Leaching of active ingredient (in ppm) (solution dosage 0.20% o.w.f, exhaust temperature 75° C., process time 60 min): 0 ppm
Leaching of active ingredient (in ppm) (solution dosage 0.20% o.w.f, exhaust temperature 80° C., process time 60 min): 0 ppm
Leaching of active ingredient (in ppm) (solution dosage 0.20% o.w.f, exhaust temperature 85° C., process time 60 min): 2 ppm
Leaching of active ingredient (in ppm) (solution dosage 0.20% o.w.f, exhaust temperature 90° C., process time 60 min): 3 ppm
Leaching of active ingredient (in ppm) (solution dosage 0.20% o.w.f, exhaust temperature 95° C., process time 60 min): 4 ppm
Leaching of active ingredient (in ppm) (solution dosage 0.50% o.w.f, exhaust temperature 60° C., process time 60 min): 1 ppm
Leaching of active ingredient (in ppm) (solution dosage 0.50% o.w.f, exhaust temperature 65° C., process time 60 min): 1 ppm
Leaching of active ingredient (in ppm) (solution dosage 0.50% o.w.f, exhaust temperature 70° C., process time 60 min): 1 ppm
Leaching of active ingredient (in ppm) (solution dosage 0.50% o.w.f, exhaust temperature 75° C., process time 60 min): 1 ppm
Leaching of active ingredient (in ppm) (solution dosage 0.50% o.w.f, exhaust temperature 80° C., process time 60 min): 1 ppm
Leaching of active ingredient (in ppm) (solution dosage 0.50% o.w.f, exhaust temperature 85° C., process time 60 min): 4 ppm
Leaching of active ingredient (in ppm) (solution dosage 0.50% o.w.f, exhaust temperature 90° C., process time 60 min): 5 ppm
Leaching of active ingredient (in ppm) (solution dosage 0.50% o.w.f, exhaust temperature 95° C., process time 60 min): 7 ppm
Leaching of active ingredient (in ppm) (solution dosage 0.80% o.w.f, exhaust temperature 60° C., process time 60 min): 2 ppm
Leaching of active ingredient (in ppm) (solution dosage 0.80% o.w.f, exhaust temperature 65° C., process time 60 min): 2 ppm
Leaching of active ingredient (in ppm) (solution dosage 0.80% o.w.f, exhaust temperature 70° C., process time 60 min): 2 ppm
Leaching of active ingredient (in ppm) (solution dosage 0.80% o.w.f, exhaust temperature 75° C., process time 60 min): 3 ppm
Leaching of active ingredient (in ppm) (solution dosage 0.80% o.w.f, exhaust temperature 80° C., process time 60 min): 1 ppm
Leaching of active ingredient (in ppm) (solution dosage 0.80% o.w.f, exhaust temperature 85° C., process time 60 min): 7 ppm
Leaching of active ingredient (in ppm) (solution dosage 0.80% o.w.f, exhaust temperature 90° C., process time 60 min): 8 ppm
Leaching of active ingredient (in ppm) (solution dosage 0.80% o.w.f, exhaust temperature 95° C., process time 60 min): 9 ppm
Leaching of active ingredient (in ppm) (solution dosage 1.00% o.w.f, exhaust temperature 60° C., process time 60 min): 6 ppm
Leaching of active ingredient (in ppm) (solution dosage 1.00% o.w.f, exhaust temperature 65° C., process time 60 min): 6 ppm
Leaching of active ingredient (in ppm) (solution dosage 1.00% o.w.f, exhaust temperature 70° C., process time 60 min): 4 ppm
Leaching of active ingredient (in ppm) (solution dosage 1.00% o.w.f, exhaust temperature 75° C., process time 60 min): 3 ppm
Leaching of active ingredient (in ppm) (solution dosage 1.00% o.w.f, exhaust temperature 80° C., process time 60 min): 1.5 ppm
Leaching of active ingredient (in ppm) (solution dosage 1.00% o.w.f, exhaust temperature 85° C., process time 60 min): 9 ppm
Leaching of active ingredient (in ppm) (solution dosage 1.00% o.w.f, exhaust temperature 90° C., process time 60 min): 11 ppm
Leaching of active ingredient (in ppm) (solution dosage 1.00% o.w.f, exhaust temperature 95° C., process time 60 min): 12 ppm

From patent publication US20210254272A1, “TEXTILES HAVING ANTIMICROBIAL PROPERTIES” (Livinguard AG, priority 2015, published 2021)
